Assay results from patent publication US20240041042A1, “1-(PYRIDYL)-5-AZINYLPYRAZOLE DERIVATIVES, AND THEIR USE FOR CONTROL OF UNDESIRED PLANT GROWTH” (Bayer Aktiengesellschaft, priority 2020, published 2024).

Key:
Type in all cases: in vivo
[1] = system: Alopecurus myosuroides (ALOMY); experiment: Pre-emergence herbicidal action against ALOMY; details: scored visually after about 3 weeks, 100% = plants have died
Procedure, shortened: (§1)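 Seeds sown in pots and covered with soil; WP or EC formulations sprayed onto the soil surface at 600 l/ha water with 0.5% additive, at 320 g/ha or lower. Greenhouse growth for about 3 weeks, then visual scoring as % effect against untreated controls (100% = plants dead).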

[2] = system: Amaranthus retroflexus (AMARE); experiment: Pre-emergence herbicidal action against AMARE; details: visual scoring after about 3 weeks vs untreated controls
Procedure, shortened: as §1

[3] = system: Avena fatua (AVEFA); experiment: Pre-emergence herbicidal action against AVEFA; details: visual scoring after about 3 weeks vs untreated controls
Procedure, shortened: as §1

[4] = system: Echinochloa crus-galli (ECHCG); experiment: Pre-emergence herbicidal action against ECHCG
Procedure, shortened: as §1

[5] = system: Lolium rigidum (LOLRI); experiment: Pre-emergence herbicidal action against LOLRI
Procedure, shortened: as §1

[6] = system: Matricaria inodora (MATIN); experiment: Pre-emergence herbicidal action against MATIN; details: dosage 320 g/ha
Procedure, shortened: as §1

[7] = system: Pharbitis purpurea (PHBPU); experiment: Pre-emergence herbicidal action against PHBPU
Procedure, shortened: as §1

[8] = system: Polygonum convolvulus (POLCO); experiment: Pre-emergence herbicidal action against POLCO
Procedure, shortened: as §1

[9] = system: Setaria viridis (SETVI); experiment: Pre-emergence herbicidal action against SETVI
Procedure, shortened: as §1

[10] = system: Verconica persica (VERPE); experiment: Pre-emergence herbicidal action against VERPE
Procedure, shortened: as §1

[11] = system: Viola tricolor (VIOTR); experiment: Pre-emergence herbicidal action against VIOTR
Procedure, shortened: as §1

[12] = system: Alopecurus myosuroides (ALOMY); experiment: Post-emergence herbicidal action against ALOMY; details: visual rating about 3 weeks after treatment vs untreated controls (100% = plants have died, 0% = like control plants)
Procedure, shortened: (§2)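 Values are percent visual activity (0% like control, 100% plants dead) after about 3 weeks in the greenhouse. Treatment: post-emergence spray at one-leaf stage, 600 l/ha spray volume, 0.5% additive, doses 320 g/ha or lower.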

[13] = system: Amaranthus retroflexus (AMARE); experiment: Post-emergence herbicidal action against AMARE
Procedure, shortened: as §2

[14] = system: Avena fatua (AVEFA); experiment: Post-emergence herbicidal action against AVEFA; details: visual rating about 3 weeks after treatment
Procedure, shortened: as §2

[15] = system: Echinochloa crus-galli (ECHCG); experiment: Post-emergence herbicidal action against ECHCG
Procedure, shortened: as §2

[16] = system: Lolium rigidum (LOLRI); experiment: Post-emergence herbicidal action against LOLRI
Procedure, shortened: as §2

[17] = system: Matricaria inodora (MATIN); experiment: Post-emergence herbicidal action against MATIN; details: dosage 320 g/ha
Method: Seeds of monocotyledonous and dicotyledonous weeds and crop plants are placed in sandy loam in plastic or organic planting pots, covered with soil and cultivated in a greenhouse under controlled growth conditions. 2 to 3 weeks after sowing, the test plants are treated at the one-leaf stage. The compounds of the invention, formulated in the form of wettable powders (WP) or as emulsion concentrates (EC), are then sprayed onto the green parts of the plants as aqueous suspension or emulsion with addition of 0.5% additive at a water application rate of 600 l/ha (converted). After the test plants have been kept in the greenhouse under optimum growth conditions for about 3 weeks, the activity of the preparations is rated visually in comparison to untreated controls. For example, 100% activity=the plants have died, 0% activity=like control plants.
Tables B1 to B13 below show the effects of selected compounds of the general formula (I) according to Table 1 on various harmful plants and at an application rate corresponding to 320 g/ha or lower, which were obtained by the experimental procedure mentioned above. The appendices “a”, “b” and “c” give differentiation by dosage used with otherwise the same harmful plants tested.

[18] = system: Pharbitis purpurea (PHBPU); experiment: Post-emergence herbicidal action against PHBPU; details: dosage 320 g/ha
Procedure, shortened: as §2

[19] = system: Polygonum convolvulus (POLCO); experiment: Post-emergence herbicidal action against POLCO
Procedure, shortened: as §2

[20] = system: Setaria viridis (SETVI); experiment: Post-emergence herbicidal action against SETVI
Procedure, shortened: as §2

[21] = system: Verconica persica (VERPE); experiment: Post-emergence herbicidal action against VERPE
Procedure, shortened: as §2

[22] = system: Viola tricolor (VIOTR); experiment: Post-emergence herbicidal action against VIOTR
Procedure, shortened: as §2

[23] = system: Oryza sativa (ORYSA); details: crop plant compatibility, 80 g/ha, effect in comparison to untreated controls
Procedure, shortened: (§3)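 Visual rating (% effect vs. untreated plants; 100% = plant death) made about 3 weeks after treatment. Plants had been sprayed at one-leaf stage, 2–3 weeks post-sowing, with aqueous WP/EC preparations containing 0.5% additive, 600 l/ha water volume; a, b, c mark dose levels.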

[24] = system: Zea mays (ZEAMX); details: crop plant compatibility, 80 g/ha, effect vs untreated controls
Procedure, shortened: as §3

[25] = 80 g/ha, visual rating about 3 weeks after treatment vs untreated controls (100% = plants have died, 0% = like control plants)
[26] = 320 g/ha, visual rating about 3 weeks after treatment

Structure (SMILES)	Pre-emergence action against ALOMY ([1]; 320 g/ha)	Pre-emergence action against AMARE in % ([2]; 80 g/ha)	Pre-emergence action against AMARE in % ([2]; 320 g/ha)	Pre-emergence action against AVEFA in % ([3]; 320 g/ha)	Pre-emergence action against ECHCG in % ([4]; dosage 80 g/ha)	Pre-emergence action against ECHCG in % ([4]; dosage 320 g/ha)	Pre-emergence action against LOLRI in % ([5]; dosage 320 g/ha)	Pre-emergence action against MATIN in % [6]	Pre-emergence action against PHBPU in % ([7]; dosage 320 g/ha)	Pre-emergence action against POLCO in % ([8]; dosage 80 g/ha)	Pre-emergence action against POLCO in % ([8]; dosage 320 g/ha)	Pre-emergence action against SETVI in % ([9]; dosage 320 g/ha)	Pre-emergence action against VERPE in % ([10]; dosage 320 g/ha)	Pre-emergence action against VIOTR in % ([11]; 320 g/ha, Viola tricolor)	Post-emergence action against ALOMY in % ([12]; 320 g/ha)	Post-emergence action against AMARE in % [13, 25]	Post-emergence action against AMARE in % [13, 26]	Post-emergence action against AVEFA in % ([14]; 320 g/ha)	Post-emergence action against ECHCG in % ([15]; dosage 320 g/ha)	Post-emergence action against LOLRI in % ([16]; dosage 320 g/ha)	further results
CCOC(=O)COc1nn(-c2ncccc2C)c(-c2ccc(F)nc2)c1Br [Example I-321]	100%	100%	100%	90%	100%	100%	100%	100%	90%	90%	100%	100%	100%	100%	100%	80%	80%	90%	90%	100%	Pre-emergence action against LOLRI in % ([5]; dosage 80 g/ha): 100%; Pre-emergence action against PHBPU in % ([7]; dosage 80 g/ha): 80%; Pre-emergence action against VIOTR in % ([11]; dosage 80 g/ha): 90%; Post-emergence action against ALOMY in % ([12]; 80 g/ha): 90%; Post-emergence action against AVEFA in % ([14]; 80 g/ha): 90%; Post-emergence action against ECHCG in % ([15]; dosage 80 g/ha): 90%; Post-emergence action against LOLRI in % ([16]; dosage 80 g/ha): 100%; Post-emergence action against MATIN in % [17]: 80%; Post-emergence action against PHBPU in % [18]: 90%; Post-emergence action against POLCO in % ([19]; dosage 80 g/ha): 80%; Post-emergence action against POLCO in % ([19]; dosage 320 g/ha): 90%; Post-emergence action against SETVI in % ([20]; dosage 80 g/ha): 90%; Post-emergence action against SETVI in % ([20]; dosage 320 g/ha): 90%; Post-emergence action against VERPE in % ([21]; 320 g/ha, VERPE): 90%; Post-emergence action against VIOTR in % ([22]; 80 g/ha): 80%; Post-emergence action against VIOTR in % ([22]; 320 g/ha): 80%; Post-emergence action against ORYSA in % [23]: 0%; Post-emergence action against ZEAMX in % [24]: 0%
COC(=O)[C@H](C)NC(=O)COc1nn(-c2ccccn2)c(-c2ccc(F)nc2)c1Cl [Example I-87]	100%	90%	100%	90%	100%	100%	100%	90%	90%	80%	90%	100%	90%	80%	90%	80%	80%	90%	80%	80%	Pre-emergence action against ALOMY ([1]; 80 g/ha): 90%; Pre-emergence action against AVEFA in % ([3]; 80 g/ha): 80%; Pre-emergence action against SETVI in % ([9]; dosage 80 g/ha): 90%; Pre-emergence action against VERPE in % ([10]; dosage 80 g/ha): 80%; Post-emergence action against ALOMY in % ([12]; 80 g/ha): 80%; Post-emergence action against AVEFA in % ([14]; 80 g/ha): 80%; Post-emergence action against MATIN in % [17]: 80%; Post-emergence action against PHBPU in % [18]: 90%; Post-emergence action against POLCO in % ([19]; dosage 80 g/ha): 80%; Post-emergence action against POLCO in % ([19]; dosage 320 g/ha): 80%; Post-emergence action against SETVI in % ([20]; dosage 80 g/ha): 80%; Post-emergence action against SETVI in % ([20]; dosage 320 g/ha): 80%; Post-emergence action against VERPE in % ([21]; 320 g/ha, VERPE): 90%; Post-emergence action against VERPE in % ([21]; dosage 80 g/ha): 80%; Post-emergence action against ORYSA in % [23]: 0%
C[C@@H](Oc1nn(-c2ccccn2)c(-c2ccc(F)nc2)c1Cl)C(=O)NCC(=O)O [Example I-338]	100%	100%	100%	90%	90%	100%	100%	80%	80%	100%	100%	100%	100%	100%	90%	80%	80%	90%	80%	90%	Pre-emergence action against ALOMY ([1]; 80 g/ha): 100%; Pre-emergence action against AVEFA in % ([3]; 80 g/ha): 90%; Pre-emergence action against LOLRI in % ([5]; dosage 80 g/ha): 100%; Pre-emergence action against SETVI in % ([9]; dosage 80 g/ha): 100%; Pre-emergence action against VIOTR in % ([11]; dosage 80 g/ha): 100%; Post-emergence action against MATIN in % [17]: 90%; Post-emergence action against POLCO in % ([19]; dosage 80 g/ha): 80%; Post-emergence action against POLCO in % ([19]; dosage 320 g/ha): 80%; Post-emergence action against SETVI in % ([20]; dosage 80 g/ha): 90%; Post-emergence action against SETVI in % ([20]; dosage 320 g/ha): 90%; Post-emergence action against VERPE in % ([21]; 320 g/ha, VERPE): 90%; Post-emergence action against VIOTR in % ([22]; 320 g/ha): 80%; Post-emergence action against ORYSA in % [23]: 0%; Post-emergence action against ZEAMX in % [24]: 0%
